Experimental data: patent US4361703A, “Para-amino(or nitro)phenyl N-acetylaminothioalkanoates” (priority 1977, dated 1982)

How the values were obtained:
[1] = Hydrolysis stability in simulated intestinal fluid; assay type: physicochemical
Description: (§1) In order first to evaluate the stability of Compound A in the gastro-intestinal tract, simulated gastric and intestinal fluids and other test fluids were prepared as follows:
PREPARATION OF SIMULATED INTESTINAL FLUID
6.1 grams of monobasic potassium phosphate and 3.9 grams of disodium hydrogen phosphate were dissolved in 1000 ml. of water. The pH of the resulting solution was 6.85.
(§2) Standard solutions of 1×10^-4 M Compound A in analytical grade methanol (0.01 ml) were prepared, and tested in the simulated gastric and intestinal fluids, in tris buffer alone, in tris buffer with added hog liver esterase and also in serum. The solutions under test were incorporated in 1 ml. of each of the test fluids. A temperature of 30° C. was used for the assays involving the hog liver esterase, whereas a temperature of 37° C. was used for the assays involving the simulated gastric and intestinal fluids and the serum. After this, the mixture was allowed to stand and the supernatant liquid was spotted onto silica t.l.c. plates and developed in 90:10 chloroform/methanol. The mixture was then extracted with 5 mls of chloroform and the chloroform-containing mixture was filtered through phase-separating papers, which allow only the chloroform solution to pass through. The chloroform solution was also spotted onto silica t.l.c. plates and developed in 90:10 chloroform/methanol.

[2] = Hydrolysis stability in human serum; assay type: in vitro ADME; conditions: 37° C.; for half-life: human serum from two volunteers
Description: The serum used in the assays was prepared by taking whole blood into plain tubes, incubating for one hour at 37° C., and then centrifuging at 2000 RPM for 10 minutes.
as §2

[3] = Hydrolysis stability in tris buffer; assay type: physicochemical
Description: (§3) PREPARATION OF TRIS BUFFER
(§4) 0.05 M tris buffer was made by dissolving 6.05 grams of tris-(hydroxymethyl)-methylamine in 1000 ml. of water, and adjusting the pH to 7.2 by the addition of 0.1 M HCl.
as §2

hog liver esterase = test: in vitro; assay type: in vitro ADME; conditions: 30° C.
Description: as §3, §4, §2

in vitro = in vitro ADME, hog; conditions: pig, pH 7.2; tris buffer plus hog liver esterase, 30° C.
Description: as §3, §4, §2

[4] = system: Charles River (CD-1 COBS) albino mice; test: in vivo
Description: (E)--Investigation of Acute Oral Toxicity in Mice
Charles River (CD-1 COBS) albino mice, 20-22 g in weight, were kept for some days in an air-conditioned animal house and fed with a standard diet (sterile VAR granules). They were fasted overnight before experiment, with water ad libitum. 15 Male mice and 15 female mice were used for each experiment.
N-Acetyl-para-aminophenol (NAPA) and N-acetyl-para-aminophenyl N'-acetyl-D,L-methionate (Compound A) were then administered to the mice, orally, as a suspension (shaken continuously with an electromagnetic agitator) in 5% gum arabic at a volume of 0.02 ml/g, either individually or in variously proportioned mixtures and at different dose levels, as shown in Table VII below.
A control group received only the 5% gum arabic vehicle.

[5] = Serum "total NAPA" in beagle dogs; assay type: in vivo; conditions: oral, last dose after 23 days
Description: (§5) (B)--Investigation of Serum Concentrations in Beagle Dogs
(§6) 6 Beagle dogs (3 males and 3 females) were dosed once a day (at 08.00 hrs. each day) for 23 days with Compound A, suspended in 1% gum tragacanth, which was administered orally by oesophageal tube, at a rate of either 432 mg/kg (2 dogs, 1 male and 1 female) or 675 mg/kg (4 dogs, 2 male and 2 female). During this period the dogs received their usual food and water until 16.00 hrs. on the day before the test; but from that time until 08.00 hrs. on the day of the test they were given no food, although they received their usual drinking water. The usual dosage of Compound A was however given to the animal at 08.00 hrs. on the day of the test.
Without any further feeding, serum samples were then taken from each animal 2, 4 and 6 hours after the oral administration of Compound A, thus at 10.00 hrs., 12.00 hrs. and 14.00 hrs. on the day of the test. After the 6-hour serum sample had been taken, the animals received their usual food for a while; but they were again made to fast for 12 hours from 20.00 hrs. on the day of the test until 08.00 hrs. on the following day, when the last, 24-hour serum sample was taken. […]

[6] = Hydrolysis stability in simulated gastric fluid; assay type: physicochemical
Description: as §1
PREPARATION OF SIMULATED GASTRIC FLUID
0.35 gram of sodium chloride, 0.5 gram of glycine and 94 ml of M hydrochloric acid were mixed, and the volume was then made up to 1000 ml with distilled water. The pH of this system was about 1.79.
as §2

[7] = Serum "free NAPA" in beagle dogs; assay type: in vivo; conditions: oral
Description: as §5, §6
Without any further feeding, serum samples were then taken from each animal 2, 4 and 6 hours after the oral administration of Compound A, thus at 10.00 hrs., 12.00 hrs. and 14.00 hrs. on the day of the test. After the 6-hour serum sample had been taken, the animals received their usual food for a while; but they were again made to fast for 12 hours from 20.00 hrs. on the day of the test until 08.00 hrs. on the following day, when the last, 24-hour serum sample was taken.
A direct determination similar to that used in Determination 2 above gave results for "free NAPA" as set out in Table IV below: […]

In the case of `CSCCC(NC(C)=O)C(=O)Oc1ccc(NC(C)=O)cc1` (racemic) [Compound A, N-acetyl-para-aminophenyl N'-acetyl-D,L-methionate], the half-life ([1]; simulated intestinal fluid, pH 6.85, 37° C.) is reported as 31.5 h, the rate of hydrolysis ([1]; simulated intestinal juice, 37° C.) is reported as “very slow” and the “effect of human serum on the rate of hydrolysis” value [2] is reported as “increased the rate of hydrolysis”. The half-life [2] was 2.5 h, the half-life ([2]; human, serum, read-out: half-life) was 2.33 h and the half-life ([3]; pH 7.2, tris buffer pH 7.2, 30° C.) was ~7.92 h. For the same molecule, the half-life ([3]; pH 7.2, tris buffer pH 7.2, 37° C.) was 4 h, the “effect of hog liver esterase on the rate of hydrolysis” value (hog liver esterase) was “no effect on the rate of hydrolysis” and the half-life (in vitro) was ~7.92 h. The behaviour / symptoms ([4]; mouse, in vivo) was “hypothermia, tremor, tail extension, epistaxis and acrocyanosis, followed by death”, the “LD50 compared with NAPA” value ([4]; oral, mice) was “several times greater than that of the well-tried analgesic NAPA” and the “recovery of "total NAPA" in serum, time” value [5] was “up to 24 hours”. The half-life ([6]; pH 1.79, simulated gastric fluid, pH about 1.79, 37° C.) was 40 h, the rate of hydrolysis ([6]; simulated gastric juice, 37° C.) was “very slow” and the hydrolysis in vivo ([7]; 23 days) was “easily hydrolyzed”. For the same molecule, the “recovery of "free NAPA" in serum, time” value ([7]; last dose after 23 days) was “up to 6 hours”.
